Key:
[1] = tested on: dopaminergic Tyrosine hydroxylase (TH)-positive neurons injured with MPTP; assay: Cellular model of Parkinson's disease (MPTP/MPP+ injury of primary mesencephalic neurons); type: cell-based, Rat; details: concentrations of 10 μM
Excerpt: This model (run by Neuro-Sys SAS, France) is based on a primary culture of dopaminergic Tyrosine hydroxylase (TH)-positive neurons injured with the dopaminergic neurons-specific toxin (DA-toxin) 1-methyl-4-phenyl-1,2,3,6 tetrahydropyridine (MPTP, a prodrug of MPP*) (Dauer and Przedborski, 2003). Any substances reducing DA-toxin neurotoxicity may be useful as a new therapeutic agent for the treatment or prevention of PD.
Primary culture of mesencephalic neurons: Rat dopaminergic neurons were cultured as described by Visanji et al., 2008 and Callizot et al., 2019. Briefly, pregnant female rat (Wistar) of 15 days of gestation were killed using a deep anesthesia with CO2 chamber and a cervical dislocation. The midbrains obtained from 15-day-old rat embryos (Janvier, France) were dissected under a microscope. The embryonic midbrains will be removed and placed in ice-cold medium of Leibovitz (L15) containing 2% of Penicillin-Streptomycin (PS) and 1% of bovine serum albumin (BSA). The ventral portion of the mesencephalic flexure, a region of the developing brain rich in dopaminergic neurons, was used for the cell preparations.
The midbrains were dissociated by trypsinisation for 20 min at 37° C. (solution at a final concentration of 0.05% trypsin and 0.02% EDTA). The reaction was stopped by the addition of Dulbecco's modified Eagle's medium (DMEM) containing DNAase I grade II (0.5 mg/mL) and 10% of foetal calf serum (FCS). Cells were then mechanically dissociated by 3 passages through a 10 ml pipette. Cells were then centrifuged at 180×g for 10 min at +4° C. on a layer of BSA (3.5%) in L15 medium. The supernatant was discarded and the cell pellets re-suspended in a defined culture medium consisting of Neurobasal supplemented with B27 (2%), L-glutamine (2 mM) and 2% of PS solution and 10 ng/mL of Brain-derived neurotrophic factor (BDNF) and 1 ng/mL of Glial-Derived Neurotrophic Factor (GDNF). Viable cells were counted in a Neubauer cytometer using the trypan blue exclusion test. The cells were seeded at a density of 40,000 cells/well in 96 well-plates (pre-coated with poly-L-lysine) and maintained in a humidified incubator at 37° C. in 5% CO2/95% air atmosphere. Half of the medium was changed every 2 days with fresh medium. The wells of first and last lines and columns […] (to avoid any edge effect) and were be filled with sterile water.
Test compounds and MPTP: • i) Pre-incubation. On day 6 of culture, the test compounds were dissolved in PBS or DMSO and incubated for 1 hour before the MPTP exposure. • ii) Injury. One hour after the application of test compound, MPTP was added to a final concentration of 4 μM, diluted in control medium still in presence of compounds/inhibitors for 48h. Test compounds were tested on one culture in 96-well plate (n=6 culture wells per condition).
Immunostaining: TH and α-Synuclein. 48 Hours after intoxication, the cell culture supernatant was removed, and the cells were fixed by a solution of 4% paraformaldehyde in PBS, pH=7.3 for 20 min at room temperature. The cells were washed twice in PBS, and then permeabilized. Non-specific sites were blocked with a solution of PBS containing 0.1% of saponin and 1% FCS for 15 min at room temperature. The cultures were incubated with: (a) monoclonal anti-Tyrosine Hydroxylase (TH) antibody produced in mouse at dilution of 1/10000 in PBS containing 1% FCS, 0.1% saponin, for 2 hours at room temperature, and (b) polyclonal anti-alpha synuclein (α-synuclein) antibody produced in rabbit at dilution of 1/200 in PBS containing 1% FCS, 0.1% saponin, for 2 h at room temperature.
Automatic computer analysis. For each condition, 20 pictures (representing the whole well area) were automatically taken using ImageXpress® (Molecular Devices) at 10× magnification (20 pictures, for TH and α-synuclein into TH neurons) using the same acquisition parameters. From images, analyses was directly and automatically performed by MetaXpress® (Molecular Devices).

[2] = tested on: Human osteosarcoma U20S cells; assay: Assay to measure lysosome and autolysosome formation (acidic vesicle formation, LysoView/LysoTracker staining); type: cell-based; details: U20S cells
Procedure, shortened: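 U2OS cells treated with compounds in DMSO for 24 h, then stained 45 min at 37 °C with 1× LysoView 633 or 50 nM LysoTracker Deep Red, with Hoechst nuclear counterstain. Live-cell fluorescence imaging at 37 °C; acidic vesicle formation judged against DMSO-treated control.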

[3] = tested on: adult human dermal fibroblast cells (HDFa cells); assay: Acidic vesicle formation in adult human dermal fibroblast cells; type: cell-based; details: concentration of 10 μM
Excerpt: This is evidence for significant stimulation of autophagy by this compound under these conditions.

[4] = tested on: Differentiated hepatocyte GSD1A disease model cells; assay: iPSC model of glycogen storage disease type 1A: glycogen and triglyceride quantification; type: cell-based, human; details: hepatocytes differentiated from GSD1A patient derived iPSCs, 10 μM
Method: Timetable for Treatment of Cells with the Compounds: • Day 1. Differentiated hepatocyte GSD1A disease model cells (DefiniGEN Ltd) were cultured in a collagen I coated 48-well plate. Empty wells were filled with PBS. • Day 9. The racemic mixture of compounds 170 and 171 (as a solution in DMSO) was added to the disease model cells • Day 11. Media for disease model cells was replaced with fresh media with compound. • Day 12. Cells were washed once in PBS and once in HBSS and 30 μL of NP40 Lysis buffer supplied with Phosphatase and Protease inhibitor cocktail was added to each well. Plate was immediately placed on dry ice. […]
Protein quantification: An aliquot of the lysates was used for protein quantification using BCA.
Glycogen quantification: An aliquot of the lysates was boiled at 96° C. for 5 minutes. […] Supernatant was used for Glycogen quantification using MAK016 kit (Merck), following manufacturer's instructions. […] 8 μL of Hydrolysis buffer from the kit was added to one aliquot from each sample (-HE; to quantify free glucose content of the lysate). The other sample was supplied with 8 μL of Hydrolysis buffer supplied with Hydrolysis Enzyme (+HE; to quantify free glucose+glycogen content of the lysate). After 30 minutes of incubation at room temperature, 10 μL of probe mix was added to each well and the absorbance at 570 nm was measured after 30 minutes incubation at room temperature. […]

[5] = tested on: HCMV; assay: Infectivity assay HCMV in HFF cells; type: cell-based, Human Cytomegalovirus (HCMV); details: Human betaherpesvirus 5, 360 h, MOI 1, 15 days, gB staining
Method: (§1) Cells were seeded in 96 well plates and the following day pre-treated with a 3-fold serial dilution of compound starting from 20 μM, in 100 μL of assay media. 24 hours later, cells were infected (without removing the media) with ZIKV or HCMV at a multiplicity of infection (MOI) compatible with multiple rounds of virus replication. DMSO-treated infected and uninfected cells were included as positive and negative controls. [table]

[6] = tested on: ZIKV; assay: Infectivity assay ZIKV in SH-SY5Y cells; type: cell-based; details: Zika virus, MOI 5, 48 h, E staining
Method: as §1

[7] = Cytotoxicity assay (MTT) parallel to HCMV infectivity assay; type: cell-based; details: human, HFF cells, read-out: HCMV TC50
Method: (§2) In parallel to the infectivity assays, in order to determine the cytotoxic properties of the compound, cells were seeded in 96 well plates and the following day pre-treated with the same serial dilutions of compound in 100 μl of assay media. The compound was left on the cells for the duration of the infectivity assays, after which a metabolic assay (MTT assay) was used to determine cell viability compared to a DMSO-treated control.

[8] = tested on: SH-SY5Y; assay: Cytotoxicity assay (MTT) parallel to ZIKV infectivity assay; type: cell-based; set-up: key: A “—” symbol indicates no inhibition; details: SH-SY5Y cells, 48 h
Method: as §2

[9] = tested on: Mutant PNPLA3-Expressing HepG2 Cells (GFP-PNPLA3 (1148>M)); assay: Cellular model of NAFLD: gel assay for mutant PNPLA3-expressing HepG2 cells; type: cell-based; details: HepG2 cells transfected with GFP-PNPLA3 (1148>M), 24 hours
Method: Method: HepG2 cells were transfected with GFP-PNPLA3 (1148>M) overexpression plasmid using Lipofectamine LTX in DMEM media supplied with 1% Oleic Acid-BSA and were left overnight. The next day, cells were trypsinated and were seeded in a 96-well plate in DMEM media supplied with 1% Oleic Acid-BSA. After 7 hours, media was changed to standard DMEM supplied with the compound of interest. After 24 hours, cells were washed once with PBS and were lysed in RIPA buffer. Lysates were collected, centrifuged and the supernatants were mixed with Laemmli buffer (without DTT or boiling) and were loaded on a 4-20% SDS-PAGE gel. After electrophoresis, gels were directly imaged in the FITC channel to visualise the GFP signal.

## NC[C@H]1CCCN1C(=O)c1csc(-c2cnn(-c3ccccc3)c2)n1 [Compound 156, 1-[(2R)-1-[2-(1-phenyl-1H-pyrazol-4-yl)-1,3-thiazole-4-carbonyl]pyrrolidin-2-yl]methanamine]
[1]; 1 μM and 500 nM
  increase in the length of the neurite network of dopaminergic TH positive neurons compared to the MPP+ injury alone: > 39%
  increase in the number of dopaminergic TH positive neurons compared to MPP+ injury alone: > 18%
[1]; 1 μM, 500 nM and 100 nM
  decrease in α-syn area per dopaminergic TH positive neuron compared to MPP+ injury alone: > 13%

## CCCN(C(=O)c1csc(-c2cnn(-c3ccccc3)c2)n1)C1CCNC1 (racemic) [racemic mixture of compounds 170 and 171]
[2]; concentration of 10 μM, 24 hours
  acidic vesicle formation relative to a DMSO-treated control: clearly increased
[2]; relative to DMSO-treated control (10 μM)
  increase in acidic vesicle formation: at least 25%
[3]
  acidic vesicle formation relative to a DMSO-treated control: significantly greater acidic vesicle formation
[4]
  reduction of cellular glycogen compared with the DMSO-only control: over 75%
  reduction of cellular triglycerides compared with the DMSO-only control: > 20%
[5]
  IC50: < 10 µM
[6]
  IC50: < 15 µM
[7]
  CC50 at 15 days: > 75 µM
[8]
  ZIKV TC50: —
[9]
  fold increase in GFP breakdown Bafilomycin-sensitive-product signal versus an inactive control: 3.7 fold

— patent US20250049776A1, “AUTOPHAGY INDUCING COMPOUNDS AND USES THEREOF, IN PARTICULAR FOR A SYSTEMIC TREATMENT OF DISEASES AND CONDITIONS” (Samsara Therapeutics Inc., priority 2021, published 2025)
